pEC50, pIC50: −log10 of the molar value. Read-outs that look alike come from different tables or passages of the source.
Experiments:
DNMT1 = biological target: T1, DNMT1 (Homo sapiens, UniProt P26358); assay: HotSpot radioisotope methyltransferase assay, DNMT1 (Poly dI-dC substrate); format: biochemical; conditions: for inhibition at 100 µM / relative enzymatic activity of DNMT1 / inhibition of DNMT1: 100 μM compound; for relative enzymatic activity of DNMT1: mean of two measurements ± SD; for relative enzymatic activity of DNMT1 / pIC50: 1 μM SAM; for pIC50: 10-dose, threefold serial dilution starting at 100 μM, mean of two measurements, read-out: DNMT1 IC50; for inhibition of DNMT1: 100 µM
T1 construct: purchased Reaction Biology Corporation (contract screening service)
T1 sequence (P26358 whole entry): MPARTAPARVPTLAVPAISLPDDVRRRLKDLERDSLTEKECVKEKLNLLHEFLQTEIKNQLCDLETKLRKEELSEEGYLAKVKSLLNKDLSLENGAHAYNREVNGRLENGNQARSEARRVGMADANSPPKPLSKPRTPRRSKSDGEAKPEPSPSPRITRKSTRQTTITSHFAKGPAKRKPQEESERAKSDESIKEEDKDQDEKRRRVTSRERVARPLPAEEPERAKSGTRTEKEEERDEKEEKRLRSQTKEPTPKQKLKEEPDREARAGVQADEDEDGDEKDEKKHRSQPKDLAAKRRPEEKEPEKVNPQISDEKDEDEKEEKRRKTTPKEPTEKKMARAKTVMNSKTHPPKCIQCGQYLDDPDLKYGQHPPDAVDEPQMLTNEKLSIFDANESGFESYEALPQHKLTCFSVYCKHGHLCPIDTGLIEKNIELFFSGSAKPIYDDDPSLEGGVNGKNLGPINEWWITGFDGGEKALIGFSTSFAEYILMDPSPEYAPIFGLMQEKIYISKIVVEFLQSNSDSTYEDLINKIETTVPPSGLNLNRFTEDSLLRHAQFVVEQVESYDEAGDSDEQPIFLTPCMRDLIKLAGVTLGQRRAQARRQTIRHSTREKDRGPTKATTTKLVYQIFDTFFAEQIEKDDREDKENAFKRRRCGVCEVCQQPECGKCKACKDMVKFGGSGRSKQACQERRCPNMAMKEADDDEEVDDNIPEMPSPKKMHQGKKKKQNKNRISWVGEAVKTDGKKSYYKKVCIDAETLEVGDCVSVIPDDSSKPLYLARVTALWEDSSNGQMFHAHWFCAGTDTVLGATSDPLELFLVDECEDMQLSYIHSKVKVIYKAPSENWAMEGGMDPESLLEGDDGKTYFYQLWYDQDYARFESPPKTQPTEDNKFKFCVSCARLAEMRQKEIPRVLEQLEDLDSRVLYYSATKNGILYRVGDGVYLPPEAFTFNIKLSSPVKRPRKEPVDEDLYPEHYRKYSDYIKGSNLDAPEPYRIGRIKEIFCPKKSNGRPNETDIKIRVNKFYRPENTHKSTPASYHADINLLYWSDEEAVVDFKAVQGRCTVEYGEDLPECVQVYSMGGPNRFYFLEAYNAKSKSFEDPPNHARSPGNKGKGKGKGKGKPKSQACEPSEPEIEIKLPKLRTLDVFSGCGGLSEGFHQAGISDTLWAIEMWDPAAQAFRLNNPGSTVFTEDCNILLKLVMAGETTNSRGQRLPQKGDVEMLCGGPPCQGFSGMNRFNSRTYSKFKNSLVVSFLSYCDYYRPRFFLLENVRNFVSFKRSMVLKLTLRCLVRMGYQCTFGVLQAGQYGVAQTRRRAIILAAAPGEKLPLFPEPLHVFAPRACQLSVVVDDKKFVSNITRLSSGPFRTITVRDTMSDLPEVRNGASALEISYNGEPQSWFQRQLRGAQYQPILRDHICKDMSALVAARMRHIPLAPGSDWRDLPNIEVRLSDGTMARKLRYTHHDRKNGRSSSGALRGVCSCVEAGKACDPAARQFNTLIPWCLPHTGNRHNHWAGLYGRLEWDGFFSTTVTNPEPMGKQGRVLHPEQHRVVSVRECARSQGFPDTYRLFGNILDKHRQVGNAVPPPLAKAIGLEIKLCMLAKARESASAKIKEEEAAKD
Protocol: First, the 10 compounds were tested at a single concentration (100 μM) in duplicate in a biochemical DNMT assay. […] Predicted binding modes for the five compounds were studied using molecular docking, implementing a novel re-scoring algorithm recently developed.
The inhibition of the enzymatic activity of DNMT1, DNMT3B, and DNMT3B/3L was tested using the HotSpot^SM platform for methyltransferase assays available at Reaction Biology Corporation. HotSpot^SM is a low volume radioisotope-based assay that uses tritium-labeled AdoMet (^3H-SAM) as a methyl donor. The test compounds diluted in dimethyl sulfoxide were added using acoustic technology (Echo550, Labcyte) into enzyme/substrate mixture in the nano-liter range. The corresponding reactions were commenced by the addition of ^3H-SAM and incubated at 30°C. Total final methylations on the substrate (Poly dI-dC in DNMT1 assay, and Lambda DNA in DNMT3B; DNMT3B/3L assay) were identified by a filter binding method implemented in Reaction Biology. Data analysis was conducted with Graphed Prism software (La Jolla, CA, USA) for curve fits. Reactions were carried out at 1 μM of SAM. […] The 10 compounds were tested first with DNMT1 and DNMT3B at one 100 μM concentration in duplicate. […] Theaflavin was also tested with DNMT3B and DNMT3B/L in 10-dose IC50 with threefold serial dilution starting at 100 μM.

DNMT3B/3L = biological target: T2, DNMT3B/3L (Homo sapiens, UniProt Q9UBC3); assay: HotSpot radioisotope methyltransferase assay, DNMT3B/3L (Lambda DNA substrate); format: biochemical; conditions: 10-dose, threefold serial dilution starting at 100 μM
T2 construct: purchased Reaction Biology Corporation (contract screening service)
Protocol: (§1) The inhibition of the enzymatic activity of DNMT1, DNMT3B, and DNMT3B/3L was tested using the HotSpot^SM platform for methyltransferase assays available at Reaction Biology Corporation. HotSpot^SM is a low volume radioisotope-based assay that uses tritium-labeled AdoMet (^3H-SAM) as a methyl donor. The test compounds diluted in dimethyl sulfoxide were added using acoustic technology (Echo550, Labcyte) into enzyme/substrate mixture in the nano-liter range. The corresponding reactions were commenced by the addition of ^3H-SAM and incubated at 30°C. Total final methylations on the substrate (Poly dI-dC in DNMT1 assay, and Lambda DNA in DNMT3B; DNMT3B/3L assay) were identified by a filter binding method implemented in Reaction Biology. Data analysis was conducted with Graphed Prism software (La Jolla, CA, USA) for curve fits. Reactions were carried out at 1 μM of SAM. In all assays, SAH was used as a standard positive control. The 10 compounds were tested first with DNMT1 and DNMT3B at one 100 μM concentration in duplicate. […] Theaflavin was also tested with DNMT3B and DNMT3B/L in 10-dose IC50 with threefold serial dilution starting at 100 μM. The authors have previously contracted the screening services of Reaction Biology Corporation to identify a novel inhibitor of DNMT1 [24].

DNMT3B = biological target: T3, DNMT3B (Homo sapiens, UniProt Q9UBC3); assay: HotSpot radioisotope methyltransferase assay, DNMT3B (Lambda DNA substrate); format: biochemical; conditions: for relative enzymatic activity of DNMT3B: mean of two measurements ± SD, 1 μM SAM
T3 construct: purchased Reaction Biology Corporation (contract screening service)
Protocol: First, the 10 compounds were tested at a single concentration (100 μM) in duplicate in a biochemical DNMT assay. SAH was used as a reference. […] Predicted binding modes for the five compounds were studied using molecular docking, implementing a novel re-scoring algorithm recently developed.
as §1

A549 cell line = conditions: read-out: IC50 for A549 cell line; human lung cancer cell line harboring wild-type p53; cited from earlier work
U373MG cell line = conditions: read-out: IC50 for U373MG cell line; human glioblastoma cell line harboring inactive mutant p53; cited from earlier work
Hut78 cell line = conditions: read-out: IC50 for Hut78 cell line; cutaneous T cell lymphoma; cited from earlier work
[1] = biological target: viral NS5 RNA methyltransferase; set-up: method as in PMID 20108931; conditions: cited from earlier work
[2] = biological target: viral NS5 RNA methyltransferase; set-up: method as in PMID 20108931; conditions: cited from earlier work; remark: listed apart in the source
[3] = Table 3, read-out: % Inhibition (DNMT1)
[4] = rounded values, read-out: inhibition of DNMT1
[5] = 100 μM compound, rounded values

| Structure (SMILES) | inhibition at 100 µM (DNMT1; [3]) | relative enzymatic activity of DNMT1 (DNMT1) | inhibition at 100 µM (DNMT1; [4]) | pIC50 (DNMT1) | relative enzymatic activity of DNMT3B (DNMT3B; 100 μM compound) | also measured |
| --- | --- | --- | --- | --- | --- | --- |
| O=c1c(O)cc([C@H]2Oc3cc(O)cc(O)c3C[C@H]2O)cc2c([C@H]3Oc4cc(O)cc(O)c4C[C@H]3O)cc(O)c(O)c12 [Theaflavin] | 65.4% | 34.62 (±0.06) % | 65% | 4.07 | 66.75 (±1.11) % | pIC50 (DNMT3B/3L): < 4.00; inhibition at 100 µM (DNMT3B; [5]): 33%; pIC50 (DNMT3B; 10-dose, threefold serial dilution starting at 100 μM): < 4.00 |
| NNc1nncc2ccccc12 [Hydralazine] | – | – | – | – | – | pIC50 (A549 cell line): 5.70; pIC50 (U373MG cell line): 4.70; pIC50 (Hut78 cell line): 4.52 |
| Cc1ccc(Cl)cc1NS(=O)(=O)c1ccc(NS(=O)(=O)c2ccc3ccccc3c2)cc1 [compound 7936171] | 62.3% | 37.74 (±2.15) % | 62% | 4.10 | 78.20 (±0.30) % | IC50 (DNMT1; -log value of the IC50, read-out: pIC50 (DNMT1) (converted)): 77.6 µM; inhibition at 100 µM (DNMT3B; [5]): 22%; inhibition of DNMT3B (DNMT3B; 100 μM compound, rounded values, listed as naphthalene sulfonamide, 100 µM): higher than 20%; pEC50 [1]: 4.92; pIC50 [2]: 4.19 |
| Cc1[nH]c2ccccc2c1CCNCc1ccc(/C=C/C(=O)NO)cc1 [Panobinostat, reference compound] | 62.7% | – | 63% | – | – | – |
| COc1ccc(Cl)cc1C(=O)NCCc1ccc(S(=O)(=O)NC(=O)NC2CCCCC2)cc1 [Glyburide, reference compound] | 60% | 40.04 (±0.78) % | 60% | 4.25 | 95.97 (±4.76) % | – |
| COc1ccc(S(=O)(=O)Nc2c(C)n(C)n(-c3ccccc3)c2=O)cc1C(=O)O [compound 6631802] | 6.74% | 93.26 (±7.97) % | – | – | 93.54 (±0.54) % | – |

The next lines start with results.

| inhibition at 100 µM (DNMT1; [3]) | relative enzymatic activity of DNMT1 (DNMT1) | inhibition at 100 µM (DNMT1; [4]) | pIC50 (DNMT1) | relative enzymatic activity of DNMT3B (DNMT3B; 100 μM compound) | Structure (SMILES) | also measured |
| --- | --- | --- | --- | --- | --- | --- |
| 30% | 70.63 (±0.19) % | 29% | – | 96.39 (±0.28) % | Cc1cc(NC(=O)CN2CCN(c3cc(C(N)=O)c4ccccc4n3)CC2)no1 [CSC027480404] | inhibition of DNMT1 (DNMT1; rounded values): 30% |
| -5.71% | 105.71 (±1.27) % | – | – | 97.85 (±5.66) % | O=C(O)c1ccc(NS(=O)(=O)c2ccc(N3CCCC3=O)cc2)cc1 [CSC027083851] | – |
| 64.6% | 35.42 (±1.78) % | 65% | 4.07 | 97.42 (±2.49) % | Cc1cc(NCc2nnc(Cc3ccccc3)o2)ccc1C(N)=O [CSC027694519] | – |
| 26.6% | 73.45 (±3.06) % | 27% | – | 90.59 (±2.49) % | Cc1ccnc2nc(C(=O)Nc3nc(-c4ccc5c(c4)OCO5)cs3)nn12 [CSC026286840] | inhibition of DNMT1 (DNMT1; rounded values): 30% |
| -7.25% | 107.25 (±0.59) % | – | – | 95.28 (±0.47) % | CC(C)(CC(=O)Nc1cccc(Cn2cccn2)c1)C(=O)O [CSC027796832] | – |

Source: paper PMC7824300, “Expanding the Structural Diversity of DNA Methyltransferase Inhibitors” (Pharmaceuticals, 2020)
